Where “and” joins values, the source holds several entries; their conditions need not be identical. Equal values may be shown once. Toxic doses and inconclusive results are not listed.
Test system: CD2F1 mice, L1210 leukemia ip, survival T/C
Test: NCI In Vivo Anticancer Drug Screen. Data for tumor model L1210 Leukemia (intraperitoneal) in CD2F1 (CDF1) mice
Conditions: higher = longer survival
Outline: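 Vehicle-treated tumor-bearing mice served as controls (C) for compound-treated mice (T). Reported figure is T divided by C.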

[1] = endpoint: mean survival time, dose: 50.0 mg/kg/injection, schedule: Q01DX009 (ip), vehicle: saline with Tween-80
[2] = endpoint: mean survival time, dose: 100.0 mg/kg/injection, schedule: Q01DX009 (ip), vehicle: saline with Tween-80
[3] = endpoint: mean survival time, dose: 200.0 mg/kg/injection, schedule: Q01DX009 (ip), vehicle: saline with Tween-80
[4] = endpoint: mean survival time, dose: 25.0 mg/kg/injection, schedule: Q01DX009 (ip), vehicle: saline with Tween-80
[5] = endpoint: mean survival time, dose: 100.0 mg/kg/injection, schedule: Q04DX002 (ip), vehicle: saline with Tween-80
[6] = endpoint: mean survival time, dose: 200.0 mg/kg/injection, schedule: Q04DX002 (ip), vehicle: saline with Tween-80
[7] = endpoint: mean survival time, dose: 400.0 mg/kg/injection, schedule: Q04DX002 (ip), vehicle: saline with Tween-80
[8] = endpoint: mean survival time, dose: 100.0 mg/kg/injection, schedule: Q01DX001 (ip), vehicle: saline with Tween-80
[9] = endpoint: mean survival time, dose: 200.0 mg/kg/injection, schedule: Q01DX001 (ip), vehicle: saline with Tween-80
[10] = endpoint: mean survival time, dose: 400.0 mg/kg/injection, schedule: Q01DX001 (ip), vehicle: saline with Tween-80
[11] = endpoint: mean survival time, dose: 12.5 mg/kg/injection, schedule: Q04DX003 (ip), vehicle: saline
[12] = endpoint: mean survival time, dose: 25.0 mg/kg/injection, schedule: Q04DX003 (ip), vehicle: saline
[13] = endpoint: mean survival time, dose: 50.0 mg/kg/injection, schedule: Q04DX003 (ip), vehicle: saline
[14] = endpoint: mean survival time, dose: 75.0 mg/kg/injection, schedule: Q01DX001 (ip), vehicle: saline
[15] = endpoint: mean survival time, dose: 150.0 mg/kg/injection, schedule: Q01DX001 (ip), vehicle: saline
[16] = endpoint: mean survival time, dose: 100.0 mg/kg/injection, schedule: Q04DX003 (ip), vehicle: saline with Tween-80
[17] = endpoint: mean survival time, dose: 200.0 mg/kg/injection, schedule: Q04DX003 (ip), vehicle: saline with Tween-80
[18] = endpoint: mean survival time, dose: 400.0 mg/kg/injection, schedule: Q04DX003 (ip), vehicle: saline with Tween-80

## Nc1ccn([C@@H](C=O)C[C@@H](C=O)CO)c(=O)n1
endpoint: median survival time, dose: 25.0 mg/kg/injection, schedule: Q01DX009 (ip), vehicle: saline
  T/C: 107 % of control
endpoint: median survival time, dose: 50.0 mg/kg/injection, schedule: Q01DX009 (ip), vehicle: saline
  T/C: 121 % of control and 112 % of control
endpoint: median survival time, dose: 100.0 mg/kg/injection, schedule: Q01DX009 (ip), vehicle: saline
  T/C: 121 % of control and 124 % of control
endpoint: median survival time, dose: 400.0 mg/kg/injection, schedule: Q01DX009 (ip), vehicle: saline
  T/C: 153 % of control and 161 % of control

## c1ccc(CN2CCCCc3ccccc32)cc1
[1]
  T/C: 100 % of control
[2]
  T/C: 98 % of control
[3]
  T/C: 104 % of control

## c1ccc2c(c1)c1ccccc1n2CCCCn1c2ccccc2c2ccccc21
endpoint: mean survival time, dose: 12.5 mg/kg/injection, schedule: Q01DX009 (ip), vehicle: saline with Tween-80
  T/C: 95 % of control
[4]
  T/C: 87 % of control
[1]
  T/C: 101 % of control and 102 % of control
[2]
  T/C: 97 % of control
[3]
  T/C: 93 % of control

## CC(=O)c1c(C)cc(=O)[nH]c1C
[5]
  T/C: 96 % of control
[6]
  T/C: 96 % of control
[7]
  T/C: 100 % of control

## COc1ccc(CCNC(=S)NC(=O)c2cc(OC)c(OC)c(OC)c2)cc1OC
[5]
  T/C: 87 % of control
[6]
  T/C: 97 % of control
[7]
  T/C: 102 % of control

## CC1CCC(c2cc(-c3ccccc3)n(-c3ccccc3)n2)CC1 (centres undefined)
endpoint: mean survival time, dose: 100.0 mg/kg/injection, schedule: Q04DX003 (ip), vehicle: acetone
  T/C: 103 % of control
endpoint: mean survival time, dose: 200.0 mg/kg/injection, schedule: Q04DX003 (ip), vehicle: acetone
  T/C: 101 % of control
endpoint: mean survival time, dose: 400.0 mg/kg/injection, schedule: Q04DX003 (ip), vehicle: acetone
  T/C: 93 % of control

## Nc1nc(=O)n(CCCOc2cccc(Cl)c2)cc1-c1ccc(Cl)c(Cl)c1
[8]
  T/C: 96 % of control
[9]
  T/C: 89 % of control
[10]
  T/C: 91 % of control

## Cc1cc(C)[nH]c(=S)n1.[Pd]
endpoint: mean survival time, dose: 3.12 mg/kg/injection, schedule: Q04DX003 (ip), vehicle: saline
  T/C: 97 % of control
endpoint: mean survival time, dose: 6.25 mg/kg/injection, schedule: Q04DX003 (ip), vehicle: saline
  T/C: 102 % of control
[11]
  T/C: 100 % of control
[12]
  T/C: 103 % of control
[13]
  T/C: 102 % of control
endpoint: mean survival time, dose: 100.0 mg/kg/injection, schedule: Q04DX003 (ip), vehicle: saline
  T/C: 105 % of control
endpoint: mean survival time, dose: 200.0 mg/kg/injection, schedule: Q04DX003 (ip), vehicle: saline
  T/C: 102 % of control

## NC(N)=NCc1ccccc1
endpoint: mean survival time, dose: 10.0 mg/kg/injection, schedule: Q04DX003 (ip), vehicle: saline
  T/C: 106 % of control
[11]
  T/C: 100 % of control
endpoint: mean survival time, dose: 20.0 mg/kg/injection, schedule: Q04DX003 (ip), vehicle: saline
  T/C: 103 % of control
[12]
  T/C: 96 % of control
endpoint: mean survival time, dose: 40.0 mg/kg/injection, schedule: Q04DX003 (ip), vehicle: saline
  T/C: 100 % of control
[13]
  T/C: 97 % of control and 100 % of control

## O.O.O=S(=O)(O)O.[Co+3].[NH2-].[NH2-].[NH2-].[NH2-]
endpoint: mean survival time, dose: 100.0 mg/kg/injection, schedule: Q04DX002 (ip), vehicle: saline
  T/C: 108 % of control

## Cc1nc2[nH]c(=O)n(O)c(=O)c2s1
endpoint: mean survival time, dose: 75.0 mg/kg/injection, schedule: Q01DX001 (ip), vehicle: other
  T/C: 102 % of control
endpoint: mean survival time, dose: 150.0 mg/kg/injection, schedule: Q01DX001 (ip), vehicle: other
  T/C: 100 % of control
endpoint: mean survival time, dose: 300.0 mg/kg/injection, schedule: Q01DX001 (ip), vehicle: other
  T/C: 86 % of control

## CCC(C)CC(C)C1=NC(C)(C)CC(C)O1 (centres undefined)
[8]
  T/C: 104 % of control
[9]
  T/C: 90 % of control

## O=C(OC1OC(CO)C(O)C(O)C1O)c1ccccc1 (centres undefined)
endpoint: mean survival time, dose: 50.0 mg/kg/injection, schedule: Q01DX009 (ip), vehicle: saline
  T/C: 97 % of control
endpoint: mean survival time, dose: 100.0 mg/kg/injection, schedule: Q01DX009 (ip), vehicle: saline
  T/C: 101 % of control
endpoint: mean survival time, dose: 200.0 mg/kg/injection, schedule: Q01DX009 (ip), vehicle: saline
  T/C: 93 % of control

## CC(C)C[CH2][Pb]([Cl])([CH2]CC(C)C)[CH2]CC(C)C
endpoint: mean survival time, dose: 0.06 mg/kg/injection, schedule: Q01DX009 (ip), vehicle: saline
  T/C: 97 % of control
endpoint: mean survival time, dose: 0.12 mg/kg/injection, schedule: Q01DX009 (ip), vehicle: saline
  T/C: 97 % of control
endpoint: mean survival time, dose: 0.25 mg/kg/injection, schedule: Q01DX009 (ip), vehicle: saline
  T/C: 97 % of control
endpoint: mean survival time, dose: 0.5 mg/kg/injection, schedule: Q01DX009 (ip), vehicle: saline
  T/C: 100 % of control
endpoint: mean survival time, dose: 1.0 mg/kg/injection, schedule: Q01DX009 (ip), vehicle: saline
  T/C: 100 % of control

## CC(C)(C)C1=CC(=O)C(C#N)=C(C#N)C1=O
[4]
  T/C: 96 % of control

## C[n+]1ccc(/C(=N\O)c2ccccc2)cc1
endpoint: mean survival time, dose: 37.5 mg/kg/injection, schedule: Q04DX003 (ip), vehicle: saline
  T/C: 100 % of control
[14]
  T/C: 101 % of control
endpoint: mean survival time, dose: 75.0 mg/kg/injection, schedule: Q04DX003 (ip), vehicle: saline
  T/C: 100 % of control
[15]
  T/C: 97 % of control
endpoint: mean survival time, dose: 150.0 mg/kg/injection, schedule: Q04DX003 (ip), vehicle: saline
  T/C: 95 % of control

## CCCCCCCCN(C)N=Nc1ccccc1
endpoint: mean survival time, dose: 79.0 mg/kg/injection, schedule: Q01DX009 (ip), vehicle: Klucel (hydroxypropylcellulose) (HPC)
  T/C: 110 % of control
endpoint: mean survival time, dose: 177.0 mg/kg/injection, schedule: Q01DX009 (ip), vehicle: Klucel (hydroxypropylcellulose) (HPC)
  T/C: 124 % of control
endpoint: mean survival time, dose: 266.0 mg/kg/injection, schedule: Q01DX009 (ip), vehicle: Klucel (hydroxypropylcellulose) (HPC)
  T/C: 122 % of control

## CCCCCCCC(=O)N/N=C(\CO)[C@]1(O)Cc2c(O)c3c(c(O)c2[C@@H](OC2CC(N)C(O)C(C)O2)C1)C(=O)c1c(OC)cccc1C3=O (some centres undefined)
endpoint: mean survival time, dose: 1.5 mg/kg/injection, schedule: Q01DX009 (ip), vehicle: saline
  T/C: 124 % of control
endpoint: mean survival time, dose: 3.0 mg/kg/injection, schedule: Q01DX009 (ip), vehicle: saline
  T/C: 122 % of control
endpoint: mean survival time, dose: 6.0 mg/kg/injection, schedule: Q01DX009 (ip), vehicle: saline
  T/C: 122 % of control
endpoint: mean survival time, dose: 12.0 mg/kg/injection, schedule: Q01DX009 (ip), vehicle: suspension in saline
  T/C: 118 % of control
endpoint: mean survival time, dose: 48.0 mg/kg/injection, schedule: Q01DX009 (ip), vehicle: suspension in saline
  T/C: 162 % of control

## Cc1ccc(N=C=C(c2ccccc2)c2ccccc2)cc1
[16]
  T/C: 94 % of control
[17]
  T/C: 97 % of control
[18]
  T/C: 94 % of control

## CCC(C)(O)c1cnc(CC(C)C)c(=O)n1O (centres undefined)
[14]
  T/C: 98 % of control
[15]
  T/C: 102 % of control

## O=c1c2ccccc2sc2c1ccc1ccccc12
[8]
  T/C: 100 % of control
[9]
  T/C: 101 % of control
[10]
  T/C: 94 % of control

## COc1cc(C2CNCc3cc(O)c(OC)cc32)ccc1O (centres undefined)
[14]
  T/C: 106 % of control
[15]
  T/C: 102 % of control

## c1ccc(CSC2=NCCS2)cc1
[16]
  T/C: 108 % of control
[17]
  T/C: 98 % of control
[18]
  T/C: 97 % of control

## Nc1cccc2c1C(=O)c1ccccc1C2=O
endpoint: mean survival time, dose: 100.0 mg/kg/injection, schedule: Q04DX003 (ip), vehicle: other
  T/C: 97 % of control
endpoint: mean survival time, dose: 200.0 mg/kg/injection, schedule: Q04DX003 (ip), vehicle: other
  T/C: 92 % of control
endpoint: mean survival time, dose: 400.0 mg/kg/injection, schedule: Q04DX003 (ip), vehicle: other
  T/C: 95 % of control

## CCN(CC)Cc1ccc(Nc2cc(C)nc(/N=C(\N)Nc3ccc(Cl)c(Cl)c3)n2)cc1
endpoint: mean survival time, dose: 12.5 mg/kg/injection, schedule: Q04DX003 (ip), vehicle: saline with Tween-80
  T/C: 98 % of control
endpoint: mean survival time, dose: 25.0 mg/kg/injection, schedule: Q04DX003 (ip), vehicle: saline with Tween-80
  T/C: 95 % of control

## CCCCCC(C)N (centres undefined)
endpoint: mean survival time, dose: 12.5 mg/kg/injection, schedule: Q01DX009 (ip), vehicle: saline sonified
  T/C: 101 % of control
[11]
  T/C: 104 % of control
endpoint: mean survival time, dose: 25.0 mg/kg/injection, schedule: Q01DX009 (ip), vehicle: saline sonified
  T/C: 98 % of control
[12]
  T/C: 103 % of control
endpoint: mean survival time, dose: 50.0 mg/kg/injection, schedule: Q01DX009 (ip), vehicle: saline sonified
  T/C: 107 % of control
[13]
  T/C: 97 % of control

— PubChem BioAssay AID256 (DTP/NCI, 2004)
